Reference: patent US20160311795A1, “PYRIMIDINE DIAMINE DERIVATIVES AS INHIBITORS OF CYTOSOLIC HSP90” (CALASIA PHARMACEUTICALS, INC., priority 2012, published 2016)
Like-named read-outs stand apart in the source and are kept apart here.

Columns and labels:
human full length Hsp90 = molecular target: T1, human full length Hsp90 (Homo sapiens, UniProt P07900); assay: Fluorescence polarization Hsp90 competitive binding assay (GM-FITC displacement)
T1 construct: amino acid residues 1 to 732 of human Hsp90 (GenBank: BC121062.2); made in house; host or cells: E. coli BL21DE3 (pET15b)
Procedure: Hsp90 binding assays was performed generally according to the procedure described in J. Biomol. […] Hsp90 inhibitors were solubilized in DMSO at a stock concentration of 50 mM. […] Eighty five μl of binding assay buffer (20 mM HEPES, pH-7.5, 50 mM KCl, 5 mM MgCl2, 20 mM sodium molybdate, 0.01% NP-40, 2 mM DTT, and 0.1 mg/ml BSA) was added to the wells of a 96 well black plate placed on ice. […] Next, 10 μl either binding assay buffer alone (control) or human full length Hsp90 protein diluted in the binding assay buffer was added to achieve a final concentration of 50 nM. The plates were incubated at 4° C. on a plate shaker for 24 h. Two μl of 50× GM-FITC (9 nM final) in DMSO was added to all wells and the plate was incubated at ambient temperature for 1 h with shaking. Fluorescence polarization readings were taken in duplicate at excitation and emission wavelengths of 480 nm and 500 nm respectively. Specific binding was calculated by subtracting polarization values in the presence of Hsp90 from those in the absence of Hsp90. To calculate percent inhibition the specific binding values obtained for GA-FITC in the presence of compound were compared to values for GA-FITC in the absence of compound (DMSO only).

[1] = Rat CNS exposure (plasma and CNS tissue concentration, LC-MS/MS); assay type: in vivo; conditions: ex-vivo CNS tissue
Procedure: Test subjects (Sprague-Dawley rats) were housed in sterile vivarium with controlled temperature, humidity and 12-hour light-dark cycle (7:00 lights-on and 19:00 lights-off). Following procurement, rats were acclimated to the vivarium facility for 7 days prior to study day-1 with ad libitum access to both diet and water. Bedding was changed twice weekly. […] On study day-1 rats were administered vehicle or Hsp90 inhibitor formulation. Following administrations of test article formulation, blood and CNS tissue was collected at 6.5 h post-dosed by a necropsy procedure. In detail, CNS tissue was isolated from the Vehicle and dose groups, divided into 2 mid-sagittal sections, placed in tarred 1 mL micro-centrifuge tubes, weighed and immediately frozen on dry ice. Blood was isolated by a cardiac puncture procedure from the Vehicle and Hsp90 inhibitor dose groups. From these samples, plasma was isolated in plasma separator tubes containing ethylenediaminetetraacetic acid as the anticoagulant. HSP90 inhibitor concentrations in plasma and CNS tissue were determined using LC-MS/MS based methods following a 60% acetonitrile extraction.

Akt1 = assay: Rat CNS biomarker assay, Akt1 ELISA in CNS lysates; assay type: in vivo; conditions: intraperitoneally, versus vehicle
EGFR in U251MG cells = assay: Hsp90 client protein stability, EGFR; assay type: cell-based, human; conditions: 48 hours, increasing concentrations
HepG2 = assay: Cell viability / efficacy in liver cancer cells, ADP-GLO; assay type: cell-based
Procedure: (§1) The effect of SBI-0640725 on cell viability was determined by measuring cellular dehydrogenase activity (U251MG and MBA-MD-231 cells) or by measuring ADP levels (HepG2) after treating cells for 72 hours with increasing concentrations of SBI-0640725. To measure dehydrogenase activity, CCK-8 kit reagent (Dojindo) was added to the wells and incubated for 2 hours, after which absorbance was measured at 450 nm using a Synergy HT micro-titer plate reader (Biotek). To measure ADP levels, ADP-GLO reagent (Life Technologies) was added to the wells, and luminescence was measured after a 30 minute incubation using a POLARstar Omega micro-titer plate reader (BMG).
(§2) The table below summarizes efficacy of SBI-0640725 in various cancer cell lines, including U251MG, MDA-MB-231, and HepG2, using ADP-GLO assay described above. As used herein “efficacy” (EC50) is the concentration of a compound that produces half-maximal response in a cellular assay.

U251MG = assay: Cell viability / efficacy in GBM cells; assay type: cell-based, human
Procedure: as §1, §2

Akt1 in U251MG cells = assay: Hsp90 client protein stability, Akt1 ELISA; assay type: cell-based, human; conditions: 48 hours, increasing concentrations
Procedure: In further experiments, the effect of SBI-0640725 on the stability of Hsp90 client proteins was analyzed. […] Akt1 protein levels were measured in cell lysates using ELISA.

[2] = test system: mitochondria isolated from U251MG cells; assay: Mitochondrial membrane potential in isolated TMRE-loaded mitochondria; assay type: cell-based, human; conditions: 10 μM or 2 μM, 30° C.
Procedure: Additional experiments were performed to determine the effect of SBI-0640725 on mitochondrial integrity. U251MG cells were treated with tetramethylrhodamine ethyl ester (TMRE), and fluorescence was visualized using fluorescence confocal microscopy (FIG. 16 panel A), or quantitated using a fluorimeter (FIG. 16 panel B) after cells had been treated with increasing concentrations of SBI-0640725 for 48 hours. […] In experiments using isolated mitochondria, mitochondrial membrane potential was determined as a measure of mitochondrial integrity. TMRE-loaded mitochondria isolated from U251MG cells were treated with either 10 μM (left bar of the pair in FIG. 17) or 2 μM (right bar of the pair in FIG. 17) SBI-0640725 while continually monitoring changes in fluorescence intensity at 30° C.

Hsp70 in U251 MG cells = assay: Hsp70 induction, ELISA; assay type: cell-based, human; conditions: U251MG, 48 hours
Procedure: Experiments were performed using U251 MG and MBA-MD-231 cells to also measure induction of Hsp 70 in response to treatment with SBI-0640725. […] For Hsp70 induction measurements, cells were treated with increasing concentrations of SBI-0640725 for 48 hours, and Hsp70 levels were measured in cell lysates using ELISA.

[3] = IC50, inhibition of Hsp90 activity, FIG. 7 concentration response
[4] = Table 1, 50 nM Hsp90, 9 nM GM-FITC, read-out: Biochemical Potency IC50
[5] = Table II, binding affinities ranked by potency
[6] = Table II, binding affinities ranked by potency, read-out: IC50

Structure (SMILES)	IC50 (human full length Hsp90; [3]) [nM]	IC50 (human full length Hsp90; [4]) [nM]	Ki (human full length Hsp90; [5]) [nM]	IC50 (human full length Hsp90; [6]) [nM]	IC50 (human full length Hsp90; assay validation / precision runs, read-out: IC50) [nM]	partitioning CNS (brain) versus plasma [1]	partitioning CNS (brain) versus plasma ([1]; listed as SB-0639353)	Akt1 level in CNS tissues (Akt1)	level of the client protein EGFR (EGFR in U251MG cells)	cell viability (HepG2; HepG2, 72 hours, ADP levels (ADP-GLO))	EC50 (HepG2; Homo sapiens, Liver Cancer, HepG2, ADP-GLO) [nM]	cell viability (U251MG; 72 hours, dehydrogenase activity (CCK-8))	EC50 (U251MG; Homo sapiens, U-251, GBM, ADP-GLO) [nM]	levels of the client protein Akt1 (Akt1 in U251MG cells)	mitochondrial membrane potential [2]	induction of Hsp70 (Hsp70 in U251 MG cells)
COc1c(C)cnc(CN(CCc2ccccc2)c2cc(Cl)nc(N)n2)c1C [SBI-0639353, 6-Chloro-N4-((4-methoxy-3,5-dimethylpyridin-2-yl)methyl)-N4-phenethylpyrimidine-2,4-diamine]	255	255	64	255	255 to 308	preferential partitioning into the brain compared to plasma	preferential partitioning	a decrease in its levels compared to vehicle treated rats	–	–	–	–	–	–	–	–
COc1c(C)cnc(CN(CCc2ccc(F)cc2)c2cc(Cl)nc(N)n2)c1C [SBI-0640725]	101	101	25	101	–	–	–	–	observed to decrease	reduction in cell viability	1300	reduction in cell viability	880	progressive decrease in the levels of the client protein Akt1	mitochondrial membrane potential decreased	caused induction of Hsp70
